Results: ChEMBL document CHEMBL3856212, “Synthesis, anti-proliferative and genotoxicity studies of 6-chloro-5-(2-substituted-ethyl)-1,3-dihydro-2H-indol-2-ones and 6-chloro-5-(2-chloroethyl)-3-(alkyl/ary-2-ylidene)indolin-2-ones” (Eur J Med Chem, 2016)

What was measured:
[1] = Cytotoxicity against human HL-60(TB) cells assessed as growth inhibition after 48 hrs by SRB assay; assay type: functional; details: HL-60, 48 h
[2] = Cytotoxicity against human HOP62 cells assessed as growth inhibition after 48 hrs by SRB assay; assay type: functional; details: HOP-62, 48 h
[3] = Cytotoxicity against human NCI-H226 cells assessed as growth inhibition after 48 hrs by SRB assay; assay type: functional; details: NCI-H226, 48 h
[4] = Cytotoxicity against human NCI-H460 cells assessed as growth inhibition after 48 hrs by SRB assay; assay type: functional; details: NCI-H460, 48 h
[5] = Cytotoxicity against human KM12 cells assessed as growth inhibition after 48 hrs by SRB assay; assay type: functional; details: KM12, 48 h
[6] = Cytotoxicity against human SW620 cells assessed as growth inhibition after 48 hrs by SRB assay; assay type: functional; details: SW-620, 48 h
[7] = Cytotoxicity against human SF268 cells assessed as growth inhibition after 48 hrs by SRB assay; assay type: functional; details: SF-268, 48 h
[8] = Cytotoxicity against human SF295 cells assessed as growth inhibition after 48 hrs by SRB assay; assay type: functional; details: SF-295, 48 h
[9] = Cytotoxicity against human MDA-MB-435 cells assessed as growth inhibition after 48 hrs by SRB assay; assay type: functional; details: MDA-MB-435, 48 h
[10] = Cytotoxicity against human SK-MEL-28 cells assessed as growth inhibition after 48 hrs by SRB assay; assay type: functional; details: SK-MEL-28, 48 h
[11] = Cytotoxicity against human UACC62 cells assessed as growth inhibition after 48 hrs by SRB assay; assay type: functional; details: UACC-62, 48 h
[12] = Cytotoxicity against human NCI-ADR-RES cells assessed as growth inhibition after 48 hrs by SRB assay; assay type: functional
[13] = Cytotoxicity against human 786-0 cells assessed as growth inhibition after 48 hrs by SRB assay; assay type: functional; details: 786-0, 48 h
[14] = Cytotoxicity against human Caki1 cells assessed as growth inhibition after 48 hrs by SRB assay; assay type: functional; details: CAKI-1, 48 h
[15] = Cytotoxicity against human SN12C cells assessed as growth inhibition after 48 hrs by SRB assay; assay type: functional
[16] = Cytotoxicity against human NCI-H226 cells assessed as assessed as growth inhibition at 10^-5 M after 48 hrs by SRB assay relative to control; assay type: functional; details: NCI-H226, 48 h, read-out: GI
[17] = Cytotoxicity against human HCC2998 cells assessed as assessed as growth inhibition at 10^-5 M after 48 hrs by SRB assay relative to control; assay type: functional; details: HCC 2998, 48 h, read-out: GI
[18] = Cytotoxicity against human HCT116 cells assessed as assessed as growth inhibition at 10^-5 M after 48 hrs by SRB assay relative to control; assay type: functional; details: HCT-116, 48 h, read-out: GI
[19] = Cytotoxicity against human HCT15 cells assessed as assessed as growth inhibition at 10^-5 M after 48 hrs by SRB assay relative to control; assay type: functional; details: HCT-15, 48 h, read-out: GI
[20] = Cytotoxicity against human KM12 cells assessed as assessed as growth inhibition at 10^-5 M after 48 hrs by SRB assay relative to control; assay type: functional; details: KM12, 48 h, read-out: GI
[21] = Cytotoxicity against human SF268 cells assessed as assessed as growth inhibition at 10^-5 M after 48 hrs by SRB assay relative to control; assay type: functional; details: SF-268, 48 h, read-out: GI
[22] = Cytotoxicity against human OVCAR3 cells assessed as assessed as growth inhibition at 10^-5 M after 48 hrs by SRB assay relative to control; assay type: functional; details: OVCAR-3, 48 h, read-out: GI
[23] = Cytotoxicity against human OVCAR5 cells assessed as assessed as growth inhibition at 10^-5 M after 48 hrs by SRB assay relative to control; assay type: functional; details: OVCAR-5, 48 h, read-out: GI
[24] = Cytotoxicity against human 786-0 cells assessed as assessed as growth inhibition at 10^-5 M after 48 hrs by SRB assay relative to control; assay type: functional; details: 786-0, 48 h, read-out: GI
[25] = Cytotoxicity against human ACHN cells assessed as assessed as growth inhibition at 10^-5 M after 48 hrs by SRB assay relative to control; assay type: functional; details: read-out: GI
[26] = Cytotoxicity against human Caki1 cells assessed as assessed as growth inhibition at 10^-5 M after 48 hrs by SRB assay relative to control; assay type: functional; details: CAKI-1, 48 h, read-out: GI
[27] = Cytotoxicity against human SN12C cells assessed as assessed as growth inhibition at 10^-5 M after 48 hrs by SRB assay relative to control; assay type: functional; details: read-out: GI
[28] = Cytotoxicity against human UO31 cells assessed as assessed as growth inhibition at 10^-5 M after 48 hrs by SRB assay relative to control; assay type: functional; details: UO-31, 48 h, read-out: GI
[29] = Cytotoxicity against human PC3 cells assessed as assessed as growth inhibition at 10^-5 M after 48 hrs by SRB assay relative to control; assay type: functional; details: PC-3, 48 h, read-out: GI
[30] = Cytotoxicity against human T47D cells assessed as assessed as growth inhibition at 10^-5 M after 48 hrs by SRB assay relative to control; assay type: functional; details: read-out: GI
[31] = Cytotoxicity against human MDA-MB-468 cells assessed as assessed as growth inhibition at 10^-5 M after 48 hrs by SRB assay relative to control; assay type: functional; details: MDA-MB-468, 48 h, read-out: GI
[32] = species on record: Mus musculus; experiment: Genotoxicity in mouse EAC cells at 125 uM after 24 hrs by micronucleus assay (reference value: 3.5 +/- 0.30%); assay type: toxicity, cell-based; details: ehrlich
[33] = species on record: Mus musculus; experiment: Genotoxicity in mouse EAC cells at 375 uM after 24 hrs by micronucleus assay (reference value: 3.5 +/- 0.30%); assay type: toxicity, cell-based; details: ehrlich
[34] = species on record: Mus musculus; experiment: Genotoxicity in mouse EAC cells at 500 uM after 24 hrs by micronucleus assay (reference value: 3.5 +/- 0.30%); assay type: toxicity, cell-based; details: ehrlich
[35] = read-out: LD50 (the source's name)

Work on `O=C1Cc2cc(CCn3cncn3)c(Cl)cc2N1` yielded a GI50 [1] of 1000 nM, a TGI [1] of over 1000 nM and a CC50 [1, 35] of over 1000 nM. It also gave a GI50 [2] of 2990 nM, a TGI [2] of over 1000 nM and a CC50 [2, 35] of over 1000 nM. The GI50 [3] was 1000 nM, the TGI [3] was over 1000 nM and the CC50 [3, 35] was over 1000 nM. For the same compound, the GI50 [4] was 6860 nM, the TGI [4] was over 1000 nM and the CC50 [4, 35] was over 1000 nM. The GI50 [5] was 5420 nM, the TGI [5] was over 1000 nM and the CC50 [5, 35] was over 1000 nM. For the same compound, the GI50 [6] was 6600 nM, the TGI [6] was over 1000 nM and the CC50 [6, 35] was over 1000 nM. For the same compound, the GI50 [7] was 5960 nM, the TGI [7] was over 1000 nM and the CC50 [7, 35] was over 1000 nM. It also gave a GI50 [8] of 3710 nM, a TGI [8] of over 1000 nM and a CC50 [8, 35] of over 1000 nM. The GI50 [9] was 3220 nM, the TGI [9] was over 1000 nM and the CC50 [9, 35] was over 1000 nM. For the same compound, the GI50 [10] was 2100 nM, the TGI [10] was over 1000 nM and the CC50 [10, 35] was over 1000 nM. For the same compound, the GI50 [11] was 2070 nM, the TGI [11] was over 1000 nM and the CC50 [11, 35] was over 1000 nM. The GI50 [12] was 5850 nM, the TGI [12] was over 1000 nM and the CC50 [12, 35] was over 1000 nM. For the same compound, the GI50 [13] was 1000 nM, the TGI [13] was over 1000 nM and the CC50 [13, 35] was over 1000 nM. The GI50 [14] was 8350 nM, the TGI [14] was over 1000 nM and the CC50 [14, 35] was over 1000 nM. It also gave a GI50 [15] of 1000 nM, a TGI [15] of over 1000 nM and a CC50 [15, 35] of over 1000 nM. It also gave an inhibition of growth at 10 µM [16] of 25.2%, an inhibition of growth at 10 µM [17] of 24.9% and an inhibition of growth at 10 µM [18] of 21%. It also gave an inhibition of growth at 10 µM [19] of 45.4%, an inhibition of growth at 10 µM [20] of 64% and an inhibition of growth at 10 µM [21] of -10.2%. The inhibition of growth at 10 µM [22] was 28.3%, the inhibition of growth at 10 µM [23] was 12.6% and the inhibition of growth at 10 µM [24] was 5.34%. It also gave an inhibition of growth at 10 µM [25] of 25.4%, an inhibition of growth at 10 µM [26] of 40% and an inhibition of growth at 10 µM [27] of 44.2%. The inhibition of growth at 10 µM [28] was 34%, the inhibition of growth at 10 µM [29] was 13.6% and the inhibition of growth at 10 µM [30] was 0.92%. The inhibition of growth at 10 µM [31] was 64.9%, the Activity [32] was 3.27% and the Activity [33] was 4.13%. It also gave an Activity [34] of 5.23%.
